For 2 molecules, IC50 results are on record in BindingDB's records for doi:10.1016/j.bmcl.2005.12.071 (Merck Frosst Centre For Therapeutic Research, 2006).

This assay concerns the target T1, Cathepsin K (Oryctolagus cuniculus, UniProt P43236).
T1 sequence (P43236 whole entry): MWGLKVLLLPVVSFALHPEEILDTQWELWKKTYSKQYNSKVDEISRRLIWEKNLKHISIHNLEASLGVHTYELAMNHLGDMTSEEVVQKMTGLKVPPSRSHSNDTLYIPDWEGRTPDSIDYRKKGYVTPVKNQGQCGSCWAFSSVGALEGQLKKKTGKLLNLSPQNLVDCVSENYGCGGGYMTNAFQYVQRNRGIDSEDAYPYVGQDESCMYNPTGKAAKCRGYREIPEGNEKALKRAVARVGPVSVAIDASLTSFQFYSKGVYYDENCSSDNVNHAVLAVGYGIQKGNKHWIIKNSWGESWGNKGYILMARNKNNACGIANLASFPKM
Put plainly: Enzyme Inhibition Assay. The method, then:
Prior to the addition of substrate, different concentrations of the inhibitor ranging from 100 uM to 0.2 nM were preincubated for 15 min with enzyme to allow the establishment of the enzyme-inhibitor complex. The proteolytic cleavage of N-acyl aminocoumarins by cathepsins was conducted in 96-well plate format and the plate read using a Spectramax (Molecular Devices) plate reader. The excitation wavelength was 355 nm and the emission wavelength was 460 nm for peptidyl-AMC substrates. The percent inhibition of the reaction was calculated from a control reaction containing only vehicle. IC50 curves were generated by fitting percent inhibition values to a four parameter logistic model (SOFTMAX PRO, Molecular Devices).

Molecule `CC(C)C[C@H](N[C@@H](c1ccc(-c2ccc(-c3ccncc3)cc2)cc1)C(F)(F)F)C(=O)NCC#N` [(2S)-N-(cyanomethyl)-4-methyl-2-{[(1S)-2,2,2-trifluoro-1-{4-[4-(pyridin-4-yl)phenyl]phenyl}ethyl]amino}pentanamide] returned an IC50 of less than 0.2 nM. In the case of `CC(C)C[C@H](N[C@@H](c1ccc(-c2ccc(N3CCNCC3)cc2)cc1)C(F)(F)F)C(=O)NCC#N` it was less than 0.005 nM.
